According to US12071441B2, “10-(di(phenyl)methyl)-4-hydroxy-8,9,9A,10-tetrahydro-7H-pyrrolo[1′,2′:4,5]pyrazino[1,2-b]pyridazine-3,5-dione derivatives and related compounds as inhibitors of the orthomyxovirus replication for treating influenza” (Novartis AG, priority 2018, dated 2024):

Key:
Experiment in all cases: microbe, parasite or virus in culture
Type in all cases: cell-based
[1] = test system: influenza A virus minigenome (PB2, PB1, PA, NP; luciferase reporter) in 293T cells, RNP_Hubei; settings: HEK-293T, 48 h
[2] = test system: influenza A virus minigenome (PB2, PB1, PA, NP; luciferase reporter) in 293T cells, RNP_CAL; settings: HEK-293T, 48 h, read-out: RNP_CAL_EC50
[3] = test system: influenza A virus minigenome (PB2, PB1, PA, NP; luciferase reporter) in 293T cells, RNP_Alaska; settings: HEK-293T, 48 h

For Cc1c(F)cccc1[C@@H](c1ccccc1)[C@H]1[C@H]2CCCN2C(=O)c2c(O)c(=O)cnn21 [Example 19, (9aR,10S)-10-((R)-(3-fluoro-2-methylphenyl)(phenyl)methyl)-4-(|1-oxidanyl)-8,9,9a,10-tetrahydro-7H-pyrrolo[1′,2′:4,5]pyrazino[1,2-b]pyridazine-3,5-dione], the EC50 [1] was < 100 nM, the EC50 [2] was < 100 nM and the EC50 [3] was < 100 nM.

With CC(C)OC(=O)Oc1c2n(ncc1=O)[C@@H]([C@H](c1ccc(F)cc1)c1cccc(F)c1F)[C@H]1CCCN1C2=O [Example 88, (9aR,10S)-10-((R)-(2,3-difluorophenyl)(4-fluorophenyl)methyl)-3,5-dioxo-3,5,8,9,9a,10-hexahydro-7H-pyrrolo[1′,2′:4,5]pyrazino[1,2-b]pyridazin-4-yl isopropyl carbonate] the EC50 [1] was < 100 nM, the EC50 [2] was < 100 nM and the EC50 [3] was < 100 nM.

In the case of O=C1c2c(O)c(=O)cnn2[C@@H]([C@H](c2ccccc2)c2cccc(F)c2F)[C@@H]2COCCN12 [Example 14, (10aR,11S)-11-((R)-(2,3-difluorophenyl)(phenyl)methyl)-4-hydroxy-7,8,10a,11-tetrahydro-10H-pyridazino[1′,6′:4,5]pyrazino[2,1-c][1,4]oxazine-3,5-dione], the EC50 [1] is reported as < 100 nM, the EC50 [2] is reported as < 100 nM and the EC50 [3] is reported as < 100 nM.

CC(C)C(=O)Oc1c2n(ncc1=O)[C@@H]([C@H](c1ccccc1)c1cccc(F)c1F)[C@H]1CCCN1C2=O [Example 31, (9aR,10S)-10-((R)-(2,3-difluorophenyl)(phenyl)methyl)-3,5-dioxo-3,5,8,9,9a,10-hexahydro-7H-pyrrolo[1′,2′:4,5]pyrazino[1,2-b]pyridazin-4-yl isobutyrate] was tested, and the EC50 [1] was < 100 nM, the EC50 [2] was < 100 nM and the EC50 [3] was < 100 nM.

With O=C(Oc1c2n(ncc1=O)[C@@H]([C@H](c1ccccc1)c1cccc(F)c1F)[C@H]1CCCN1C2=O)OC1CCOCC1 [Example 74, (9aR,10S)-10-((R)-(2,3-difluorophenyl)(phenyl)methyl)-3,5-dioxo-3,5,8,9,9a,10-hexahydro-7H-pyrrolo[1′,2′:4,5]pyrazino[1,2-b]pyridazin-4-yl (tetrahydro-2H-pyran-4-yl) carbonate] the EC50 [1] was < 100 nM, the EC50 [2] was < 100 nM and the EC50 [3] was < 100 nM.

In the case of O=C1c2c(O)c(=O)cnn2[C@@H]([C@H](c2cccc(C(F)(F)F)c2)c2cccc(F)c2F)[C@H]2CCCN12 [Example 3, (9aR,10S)-10-((R)-(2,3-difluorophenyl)(3-(trifluoromethyl)phenyl)methyl)-4-hydroxy-8,9,9a,10-tetrahydro-7H-pyrrolo[1′,2′:4,5]pyrazino[1,2-b]pyridazine-3,5-dione], the EC50 [1] is reported as < 100 nM, the EC50 [2] is reported as < 100 nM and the EC50 [3] is reported as < 100 nM.

With Cc1ccccc1[C@H](c1cccc(C)c1F)[C@H]1[C@H]2CCCN2C(=O)c2c(O)c(=O)cnn21 [Example 17, (9aR,10S)-10-((R)-(2-fluoro-3-methylphenyl)(o-tolyl)methyl)-4-hydroxy-8,9,9a,10-tetrahydro-7H-pyrrolo[1′,2′:4,5]pyrazino[1,2-b]pyridazine-3,5-dione] the EC50 [1] was < 100 nM, the EC50 [2] was 100 to 1000 nM and the EC50 [3] was 100 to 1000 nM.

With Cc1cccc([C@@H](c2cccc(F)c2)[C@H]2[C@H]3CCCN3C(=O)c3c(O)c(=O)cnn32)c1F [Example 12, (9aR,10S)-10-((R)-(2-fluoro-3-methylphenyl)(3-fluorophenyl)methyl)-4-hydroxy-8,9,9a,10-tetrahydro-7H-pyrrolo[1′,2′:4,5]pyrazino[1,2-b]pyridazine-3,5-dione] the EC50 [1] was 100 to 1000 nM, the EC50 [2] was 100 to 1000 nM and the EC50 [3] was 100 to 1000 nM.

For CN(C)C(=O)OCOc1c2n(ncc1=O)[C@@H]([C@H](c1ccc(F)cc1)c1cccc(F)c1F)[C@H]1CCCN1C2=O [Example 85, (((9aR,10S)-10-((R)-(2,3-difluorophenyl)(4-fluorophenyl)methyl)-3,5-dioxo-3,5,8,9,9a,10-hexahydro-7H-pyrrolo[1′,2′:4,5]pyrazino[1,2-b]pyridazin-4-yl)oxy)methyl dimethylcarbamate], the EC50 [1] was 100 to 1000 nM, the EC50 [2] was 100 to 1000 nM and the EC50 [3] was ≥ 1000 nM.

For O=C(Oc1c2n(ncc1=O)[C@@H]([C@H](c1cccc(F)c1)c1cccc(F)c1F)[C@H]1CCCN1C2=O)N1CCC(N2CCCCC2)CC1 [Example 102, (9aR,10S)-10-((R)-(2,3-difluorophenyl)(3-fluorophenyl)methyl)-3,5-dioxo-3,5,8,9,9a,10-hexahydro-7H-pyrrolo[1′,2′:4,5]pyrazino[1,2-b]pyridazin-4-yl [1,4′-bipiperidine]-1′-carboxylate], the EC50 [1] was ≥ 1000 nM, the EC50 [2] was ≥ 1000 nM and the EC50 [3] was ≥ 1000 nM.

For COc1ccccc1[C@@H](c1ccc(F)cc1)[C@H]1[C@H]2CCCN2C(=O)c2c(O)c(=O)cnn21 [Example 25, (9aR,10S)-10-((R)-(4-fluorophenyl)(2-methoxyphenyl)methyl)-4-hydroxy-8,9,9a,10-tetrahydro-7H-pyrrolo[1′,2′:4,5]pyrazino[1,2-b]pyridazine-3,5-dione], the EC50 [1] was 100 to 1000 nM, the EC50 [2] was 100 to 1000 nM and the EC50 [3] was 100 to 1000 nM.

For COC(=O)c1ccccc1C(=O)Oc1c2n(ncc1=O)[C@@H]([C@H](c1ccccc1)c1cccc(F)c1F)[C@H]1CCCN1C2=O [Example 70, (9aR,10S)-10-((R)-(2,3-difluorophenyl)(phenyl)methyl)-3,5-dioxo-3,5,8,9,9a,10-hexahydro-7H-pyrrolo[1′,2′:4,5]pyrazino[1,2-b]pyridazin-4-yl methyl phthalate], the EC50 [1] was < 100 nM, the EC50 [2] was < 100 nM and the EC50 [3] was < 100 nM.

For COC(C)(C)C(=O)Oc1c2n(ncc1=O)[C@@H]([C@H](c1ccccc1)c1cccc(F)c1F)[C@H]1CCCN1C2=O [Example 40, (9aR,10S)-10-((R)-(2,3-difluorophenyl)(phenyl)methyl)-3,5-dioxo-3,5,8,9,9a,10-hexahydro-7H-pyrrolo[1′,2′:4,5]pyrazino[1,2-b]pyridazin-4-yl 2-methoxy-2-methylpropanoate], the EC50 [1] was < 100 nM, the EC50 [2] was < 100 nM and the EC50 [3] was < 100 nM.

In the case of CC(C)CC(=O)Oc1c2n(ncc1=O)[C@@H]([C@H](c1ccc(F)cc1)c1cccc(F)c1F)[C@H]1CCCN1C2=O [Example 93, (9aR,10S)-10-((R)-(2,3-difluorophenyl)(4-fluorophenyl)methyl)-3,5-dioxo-3,5,8,9,9a,10-hexahydro-7H-pyrrolo[1′,2′:4,5]pyrazino[1,2-b]pyridazin-4-yl 3-methylbutanoate], the EC50 [1] is reported as < 100 nM, the EC50 [2] is reported as < 100 nM and the EC50 [3] is reported as < 100 nM.

In the case of COC(=O)OCOc1c2n(ncc1=O)[C@@H]([C@H](c1ccc(F)cc1)c1cccc(F)c1F)[C@H]1CCCN1C2=O [Example 82, (((9aR,10S)-10-((R)-(2,3-difluorophenyl)(4-fluorophenyl)methyl)-3,5-dioxo-3,5,8,9,9a,10-hexahydro-7H-pyrrolo[1′,2′:4,5]pyrazino[1,2-b]pyridazin-4-yl)oxy)methyl methyl carbonate], the EC50 [1] is reported as < 100 nM, the EC50 [2] is reported as < 100 nM and the EC50 [3] is reported as < 100 nM.

With O=C1c2c(O)c(=O)cnn2[C@@H]([C@H](c2ccccc2)c2c(F)ccc(F)c2F)[C@H]2CCCN12 [Example 16, (9aR,10S)-4-hydroxy-10-((R)-phenyl(2,3,6-trifluorophenyl)methyl)-8,9,9a,10-tetrahydro-7H-pyrrolo[1′,2′:4,5]pyrazino[1,2-b]pyridazine-3,5-dione] the EC50 [1] was < 100 nM, the EC50 [2] was < 100 nM and the EC50 [3] was < 100 nM.

With CC(C)C(=O)OCOc1c2n(ncc1=O)[C@@H]([C@H](c1ccccc1)c1cccc(F)c1F)[C@H]1CCCN1C2=O [Example 32, (((9aR,10S)-10-((R)-(2,3-difluorophenyl)(phenyl)methyl)-3,5-dioxo-3,5,8,9,9a,10-hexahydro-7H-pyrrolo[1′,2′:4,5]pyrazino[1,2-b]pyridazin-4-yl)oxy)methyl isobutyrate] the EC50 [1] was < 100 nM, the EC50 [2] was < 100 nM and the EC50 [3] was < 100 nM.

In the case of COCCOC(=O)Oc1c2n(ncc1=O)[C@@H]([C@H](c1ccccc1)c1cccc(F)c1F)[C@H]1CCCN1C2=O [Example 50, (9aR,10S)-10-((R)-(2,3-difluorophenyl)(phenyl)methyl)-3,5-dioxo-3,5,8,9,9a,10-hexahydro-7H-pyrrolo[1′,2′:4,5]pyrazino[1,2-b]pyridazin-4-yl (2-methoxyethyl) carbonate], the EC50 [1] is reported as < 100 nM, the EC50 [2] is reported as < 100 nM and the EC50 [3] is reported as < 100 nM.

In the case of COC(=O)OCOc1c2n(ncc1=O)[C@@H]([C@H](c1cccc(F)c1)c1ccc(F)c(F)c1)[C@H]1CCCN1C2=O [Example 45, (((9aR,10S)-10-((R)-(3,4-difluorophenyl)(3-fluorophenyl)methyl)-3,5-dioxo-3,5,8,9,9a,10-hexahydro-7H-pyrrolo[1′,2′:4,5]pyrazino[1,2-b]pyridazin-4-yl)oxy)methyl methyl carbonate], the EC50 [1] is reported as < 100 nM, the EC50 [2] is reported as < 100 nM and the EC50 [3] is reported as < 100 nM.

With CCOC(=O)OCOc1c2n(ncc1=O)[C@@H]([C@H](c1ccc(F)cc1)c1cccc(F)c1F)[C@H]1CCCN1C2=O [Example 92, (((9aR,10S)-10-((R)-(2,3-difluorophenyl)(4-fluorophenyl)methyl)-3,5-dioxo-3,5,8,9,9a,10-hexahydro-7H-pyrrolo[1′,2′:4,5]pyrazino[1,2-b]pyridazin-4-yl)oxy)methyl ethyl carbonate] the EC50 [1] was < 100 nM, the EC50 [2] was < 100 nM and the EC50 [3] was < 100 nM.

In the case of CC(C)C(=O)Oc1c2n(ncc1=O)[C@@H]([C@H](c1ccc(F)cc1)c1cccc(F)c1F)[C@H]1CCCN1C2=O [Example 84, (9aR,10S)-10-((R)-(2,3-difluorophenyl)(4-fluorophenyl)methyl)-3,5-dioxo-3,5,8,9,9a,10-hexahydro-7H-pyrrolo[1′,2′:4,5]pyrazino[1,2-b]pyridazin-4-yl isobutyrate], the EC50 [1] is reported as < 100 nM, the EC50 [2] is reported as < 100 nM and the EC50 [3] is reported as < 100 nM.
